The IC50 is the concentration that gives 50% inhibition.

The target in the assay is T1, GST-Met 248 PDE 4a (purified GST fusion protein of the human recombinant phosphodiesterase IVa (met-248)) (Homo sapiens, UniProt P27815).
T1 construct: phosphodiesterase IVa (met-248); made in house; host or cells: Sf-9 insect cells (baculovirus)
T1 sequence (P27815 248-886 limits assumed): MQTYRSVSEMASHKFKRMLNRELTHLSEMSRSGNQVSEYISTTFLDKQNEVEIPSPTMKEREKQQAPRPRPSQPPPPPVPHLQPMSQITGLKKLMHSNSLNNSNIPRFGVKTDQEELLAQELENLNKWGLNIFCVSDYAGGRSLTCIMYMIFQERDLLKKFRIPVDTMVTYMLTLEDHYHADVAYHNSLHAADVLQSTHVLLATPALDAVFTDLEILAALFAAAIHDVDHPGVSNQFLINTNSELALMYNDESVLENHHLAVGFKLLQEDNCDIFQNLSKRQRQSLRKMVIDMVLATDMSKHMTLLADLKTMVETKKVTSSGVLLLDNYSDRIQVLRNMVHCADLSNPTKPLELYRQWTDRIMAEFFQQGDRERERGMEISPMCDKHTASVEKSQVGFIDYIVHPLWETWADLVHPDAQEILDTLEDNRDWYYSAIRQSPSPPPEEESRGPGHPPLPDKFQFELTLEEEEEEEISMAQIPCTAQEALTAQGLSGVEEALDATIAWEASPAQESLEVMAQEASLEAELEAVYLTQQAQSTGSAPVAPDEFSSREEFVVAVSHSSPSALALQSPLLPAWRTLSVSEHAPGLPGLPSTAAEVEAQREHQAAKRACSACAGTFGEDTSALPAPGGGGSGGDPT
In words: SPA Based PDE Activity Assay (hydrolysis of cAMP to AMP). It counts as biochemical. To be noted: 100 nM cAMP; baculovirus/Sf-9 expressed enzyme; ten point titration. How it is done:
SPA Based PDE Activity Assay Protocol
Compounds which inhibit the hydrolysis of cAMP to AMP by the type-IV cAMP-specific phosphodiesterases were screened in 96-well plate format as follows:
In a 96 well-plate at 30° C. was added the test compound (dissolved in 2 μl DMSO), […] of substrate buffer containing [2,8-^3 H] adenosine 3',5'-cyclic phosphate (cAMP, 100 nM to 50 μM), 10 mM MgCl2, 1 mM EDTA, 50 mM Tris, pH 7.5. The reaction was initiated by the addition of […] of human recombinant PDE-IV (the amount was controlled so that ~10% product was formed in 10 min.). The reaction was stopped after 10 min. by the addition of 1 mg of PDE-SPA beads (Amersham). The product AMP generated was quantified on a Microbeta 96-well plate counter. The signal in the absence of enzyme was defined as the background. 100% activity was defined as the signal detected in the presence of enzyme and DMSO with the background subtracted. Percentage of inhibition was calculated accordingly. IC50 value was approximated with a non-linear regression fit using the standard 4-parameter/multiple binding sites equation from a ten point titration.
IC50 values shown in Table 7 were determined with 100 nM cAMP using the purified GST fusion protein of the human recombinant phosphodiesterase IVa (met-248) produced from a baculovirus/Sf-9 expression system.
`FC(F)Oc1ccc(C(Cc2ccncc2)c2ccc(NCc3ccccc3)nc2)cc1OC(F)F` (racemic) [Example 1, 4-{2-[3,4-Bis(difluoromethoxy)phenyl]-2-[6-(benzylamino)3-pyridyl]ethyl}pyridine]: the IC50 was 0.75 nM. To `CC(C)(Nc1ccc(C(Cc2cc[n+]([O-])cc2)c2ccc(OC(F)F)c(OC(F)F)c2)cn1)c1ccccc1` (racemic) [Example 11, 4-{2-[3,4-Bis(difluoromethoxy)phenyl]-2-[6-(1-methyl-1-phenylethylamino)3-pyridyl]ethyl}pyridine-N-oxide] belongs 1.63 nM; to `CN(Cc1ccccc1)c1ccc(C(Cc2ccncc2)c2ccc(OC(F)F)c(OC(F)F)c2)cn1` (racemic) [Example 54, 4-{2-[3,4-BIS(DIFLUOROMETHOXY)PHENYL]-2-[6-(N-METHYL-N-BENZYLAMINO)3-PYRIDYL]ETHYL}PYRIDINE], 2.84 nM; to `COc1ccc(N(C)c2ccc(C(Cc3cc[n+]([O-])cc3)c3ccc(OC(F)F)c(OC(F)F)c3)cn2)cc1` (racemic) [Example 69, 4-{2-[3,4-Bis(difluoromethoxy)phenyl]-2-[6-(N-methyl-N-4-methoxyphenylamino)3-pyridyl]ethyl}pyridine-N-oxide], 3.1 nM. For `O=C(c1ccc(F)cc1)N(C(=O)c1ccc(F)cc1)c1ccc(C(Cc2cc[n+]([O-])cc2)c2ccc(OC(F)F)c(OC(F)F)c2)cn1` (single isomer, unassigned; enantiomer-2) [Example 99, (ENANTIOMER-2)-4-{2-[3,4-BIS(DIFLUOROMETHOXY)PHENYL]-2-{6-[N,N-DI(4-FLUOROBENZAMIDE)]3-PYRIDYL}ETHYL}PYRIDINE-N-OXIDE], the IC50 was determined as 0.84 nM.
